Measured values as given in patent US7700646B2, “Compounds for use in the treatment of infection” (The University of London, School of Pharmacy, priority 2004, dated 2010).
Values joined by “and” are separate entries in the source; they are usually repeats but may differ in a detail not shown here. Identical values can stand only once.

Experiments:
EMRSA-15 [1] = experiment: MIC of oxacillin in absence or presence of fixed concentration of compound; assay type: cell-based, Staphylococcus aureus
Protocol: (§1) Bacterial strains: S. aureus BB568 (COL-type strain that carries mecA and pT181) was provided by Professor B. Berger-Bächi. EMRSA-15 and EMRSA-16 were clinical isolates from the Royal Free Hospital, London.
(§2) Antibacterial susceptibility testing: Minimum Inhibitory Concentration (MIC) was determined by both broth and agar dilution techniques. Broth MIC testing was performed in 96-well microtitre trays with an inoculum of about 10^4 cfu in 100 μL of Mueller-Hinton broth (MHB) (Oxoid, Basingstoke, United Kingdom) supplemented with 2% NaCl. MIC determinations by agar dilution were carried out using Mueller-Hinton agar (Oxoid) with an inoculum of about 10^4 organisms per spot. For both methods, MIC values were obtained after incubation at 35° C. for 24 h. S. aureus ATCC29213 was used as the standard.
(§3) With the amide derivatives (21 and 24) in hand, their efficacy as modulators for β-lactam resistance in S. aureus was evaluated by determining their capcity to reduce the minimum inhibitory concentration (MIC) of oxacillin against MRSA strains BB 568, EMRSA-15 and EMRSA-16 as described in example 2.
(§4) With the B-ring modified analogues 47 and 48 in hand, their efficacy as modulators for β-lactam resistance in S. aureus was evaluated by determining their capacity to reduce the minimum inhibitory concentration (MIC) of oxacillin against MRSA strains BB 568, EMSRA-15 and EMSRA-16 (Table 5)

EMRSA-16 [2] = experiment: as above; assay type: cell-based, Staphylococcus aureus
Protocol: as §1, §2, §3, §4

S. aureus BB568 [3] = experiment: as above; assay type: cell-based, Staphylococcus aureus; conditions: BB 568
Protocol: as §1, §2, §3, §4

MRSA strain BB568 = conditions: cited from earlier work; for MIC of oxacillin in combination with compound: fixed sub-inhibitory concentration of compound
EMRSA-15 [4] = experiment: MIC of compound alone, broth dilution; assay type: cell-based, Staphylococcus aureus; conditions: MHB + 2% NaCl, 35° C., 24 h
Protocol: as §1, §2

EMRSA-16 [5] = experiment: MIC of compound alone, broth dilution; assay type: cell-based, Staphylococcus aureus; conditions: MHB + 2% NaCl, 35° C., 24 h
Protocol: as §1, §2

S. aureus BB568 [6] = experiment: MIC of compound alone, broth dilution; assay type: cell-based, Staphylococcus aureus; conditions: 35° C., 24 h
Protocol: as §1, §2

[7] = tested on: MRSA strains BB 568, EMRSA-15 and EMRSA-16; experiment: Intrinsic antibacterial activity, summary over three strains; assay type: cell-based, Staphylococcus aureus; conditions: compound alone, in words
Protocol: as §1, §2
(§5) Sub-inhibitory concentrations (6.25, 12.5 and 25 mg/L) of both compounds were effective in reducing the MIC of all three strains examined.

[8] = tested on: MRSA strains BB 568, EMRSA-15 and EMRSA-16; experiment: Modulation of oxacillin resistance, summary over three strains; assay type: cell-based, Staphylococcus aureus; conditions: for potency as oxacillin sensitiser compared with ECg: 6.25 mg/L of catechin gallate
Protocol: as §1, §2, §5
At a concentration of 25 mg/L, ECg and the two analogues (47 and 48) fully sensitised each of the three MRSA strains to oxacillin, reducing the MICs to less than 0.5 mg/L, a figure well below the clinically-relevant breakpoint for β-lactam antbiotics.

porcine liver esterase = experiment: Esterase sensitivity; assay type: in vitro ADME; conditions: porcine liver esterase (Sigma), 10 min at 37° C.
Protocol: The product of example 1 was tested for in esterase sensitivity as compared to ECG using commercially available porcine liver esterase (Sigma).

EMRSA-16 cells = experiment: Binding of catechins to staphylococcal cells (HPLC of unbound catechin); set-up: species or system Staphylococcus aureus; conditions: compound added alone
Text: The method is based on Hashimoto, T. et al 1999.

40 MRSA strains = conditions: all 40 MRSA strains; cited from earlier work
[9] = Staphylococcus aureus, absence of compound, 35° C., 24 h
[10] = Staphylococcus aureus, read-out: MIC
[11] = Staphylococcus aureus, BB568, BB 568, MHB + 2% NaCl, read-out: MIC
[12] = in presence of 12.5 mg/L compound
[13] = in presence of 25 mg/L compound
[14] = in presence of 6.25 mg/L compound
[15] = in presence of 12.5 mg/L compound, listed as ECG

SMILES | MIC (EMRSA-15 [4]) | MIC (EMRSA-16 [5]) | MIC (S. aureus BB568 [6]; BB 568, MHB + 2% NaCl) | Oxacillin MIC (EMRSA-15 [1]; [12]) | Oxacillin MIC (EMRSA-16 [2]; [12]) | Oxacillin MIC (EMRSA-16 [2]; [13]) | Oxacillin MIC (S. aureus BB568 [3]; [12]) | Oxacillin MIC (S. aureus BB568 [3]; [13]) | intrinsic antibacterial activity [7] | Oxacillin MIC (EMRSA-15 [1]; [14]) | Oxacillin MIC (EMRSA-15 [1]; [13]) | Oxacillin MIC (EMRSA-16 [2]; [14]) | Oxacillin MIC (S. aureus BB568 [3]; [14]) [mg/L] | MIC of oxacillin in combination with compound (MRSA strain BB568) | other results
Cc1onc(-c2ccccc2)c1C(=O)N[C@@H]1C(=O)N2[C@@H]1SC(C)(C)[C@@H]2C(=O)O [Oxacillin, oxacillin, reference compound] | – | – | – | – | – | – | – | – | – | – | – | – | – | – | MIC (EMRSA-15 [1]; [9]): 32 µg/mL; MIC (EMRSA-16 [2]; [9]): 512 µg/mL; Oxacillin MIC (S. aureus BB568 [3]; absence of compound, 35° C., 24 h, listed as Oxacillian): 256 mg/L; MIC (S. aureus BB568 [3]; Staphylococcus aureus, BB568, absence of compound, 35° C., 24 h): 256 µg/mL; MIC for oxacillin (MRSA strain BB568; oxacillin alone): 256 µg/mL
O=C(N[C@@H]1Cc2c(O)cc(O)cc2O[C@@H]1c1ccc(O)c(O)c1)c1cc(O)c(O)c(O)c1 [Ex 1] | 128/256 | 128/128 | 128/256 | 1/1 | 32/64 | 1/1 | 32/64 | 4/8 | extremely weak intrinsic antibacterial activity | – | – | – | – | – | MIC (EMRSA-15 [4]; [10]): 256 µg/mL; MIC (EMRSA-16 [5]; [10]): 128 µg/mL; MIC (S. aureus BB568 [6]; [11]): 256 µg/mL; Oxacillin MIC, each of the three MRSA strains [8, 13]: able to reduce the resistance to oxacillin of all three strains; hydrolysis by esterase (porcine liver esterase): not affected
O=C(O[C@@H]1Cc2c(O)cc(O)cc2O[C@@H]1c1ccc(O)c(O)c1)c1cc(O)c(O)c(O)c1 [ECg, (−)-epicatechin gallate, reference compound] | – | – | – | ≦0.5 mg/L | ≦0.5 mg/L | ≦0.5 mg/L | ≦0.5 mg/L | ≦0.5 mg/L | – | ≦0.5 mg/L | ≦0.5 mg/L | ≦0.5 mg/L | 1 | 1 µg/mL | Oxacillin MIC (EMRSA-16 [2]; [15]): 1 mg/L; Oxacillin MIC (S. aureus BB568 [3]; [15]): 1 mg/L; hydrolysis by esterase (porcine liver esterase): totally hydrolysed; Binding (%) (EMRSA-16 cells): 22%; reduction of β-lactam MIC (40 MRSA strains): reduced the MIC values to the susceptibility breakpoint or below
O=C(O[C@@H]1Cc2c(O)cc(O)cc2O[C@@H]1c1cc(O)c(O)c(O)c1)c1cc(O)c(O)c(O)c1 [EGCg, epigallocatechin gallate] | – | – | – | – | – | – | – | – | – | – | – | – | – | 8 µg/mL | Binding (%) (EMRSA-16 cells): 16.2%
O=C(N[C@H]1Cc2c(O)cc(O)cc2O[C@@H]1c1ccc(O)c(O)c1)c1cc(O)c(O)c(O)c1 [Compound 24] | – | – | – | – | – | 256/512 | – | 64/64 | extremely weak intrinsic antibacterial activity | – | significant degree of sensitisation and 2/4 | – | – | – | MIC (EMRSA-15 [4]; [10]): 256 µg/mL; MIC (EMRSA-16 [5]; [10]): 128 µg/mL; MIC (S. aureus BB568 [6]; [11]): 256 µg/mL
Oc1cc(O)c2c(c1)O[C@H](c1cc(O)c(O)c(O)c1)[C@H](O)C2 [EGC, epigallocatechin] | – | – | – | – | – | – | – | – | – | – | – | – | – | inactive | –
O=C(O[C@@H]1Cc2c(O)cc(O)cc2O[C@@H]1c1cc(O)cc(O)c1)c1cc(O)c(O)c(O)c1 [Compound 48, (−)-3,5-dihydroxy B ring modified (−)-ECg] | 64 µg/mL | 32 µg/mL | 128 µg/mL | ≦0.5 mg/L | ≦0.5 mg/L | ≦0.5 mg/L | 1 mg/L | ≦0.5 mg/L | weak to moderate anti-staphylococcal activity | 2 mg/L | ≦0.5 mg/L | 64 mg/L | 16 | – | potency as oxacillin sensitiser compared with ECg [8]: less potent than the natural compound
O=C(O[C@@H]1Cc2c(O)cc(O)cc2O[C@@H]1c1cccc(O)c1)c1cc(O)c(O)c(O)c1 [Compound 47, (−)-3-hydroxy B ring modified (−)-ECg] | >128 µg/mL | 128 µg/mL | >128 µg/mL | ≦0.5 mg/L | 1 mg/L | ≦0.5 mg/L | 2 mg/L | ≦0.5 mg/L | little or no intrinsic antibacterial activity | 2 mg/L | ≦0.5 mg/L | 32 mg/L | 16 | – | potency as oxacillin sensitiser compared with ECg [8]: less potent than the natural compound
